Where a name gives a salt, the structure may show the parent alone.
Tests used:
[1] = target: T1, delta-5-desaturase (Rattus norvegicus, UniProt Q920R3); assay: Delta-5-desaturase inhibitory activity using rat liver microsome; format: biochemical; conditions: test compound 10 μM
T1 construct: a rat liver microsome fraction (10 μl) diluted to 3 mg/ml with a microsome buffer; from tissue; host or cells: rat liver microsome fraction
Description: Delta-5-Desaturase Inhibitory Activity Using Rat Liver Microsome
The inhibitory activity of the test compound on delta-5-desaturase was measured by the method described below. To a solution of the test compound in DMSO prepared in advance was secondarily diluted with a buffer (300 mM NaH2PO4 [pH 7.4], 450 mM KCl, 30 mM NaF, 9 mM MgCl2, 4.5 mM glutathione [reduced form], 0.3% BSA [fatty acid free, SIGMA]) to give an assay buffer. The assay buffer (10 μl) was dispensed to a polypropylene deep 96-well block, and a rat liver microsome fraction (10 μl) diluted to 3 mg/ml with a microsome buffer (10 mM Tris-HCl [pH 7.4], 1 mM EDTA, 250 mM sucrose) was added. The enzyme reaction was started by adding 9 mM NADH, 9 mM ATP, 0.9 mM CoA, 10 μCi/ml (8E,11E,14E)-(1-^14C)eicosa-8,11,14-trienoic acid (PerkinElmer Inc.) (10 μl). The enzyme reaction was performed for 120 min at room temperature, and discontinued by the addition of 10 μl of 2.5M NaOH. After discontinuation of the reaction, the plate was sealed and incubated overnight at 55° C. to allow saponification. The fatty acid was extracted with solvent based on the Bligh & Dyer method described in Can. J. Biochem. Physiol., vol. 37, page 911 (1959) by adding formic acid:methanol:chloroform (1:6:3) (200 μl), maintaining the single layer state, sufficiently stirring the mixture and adding pure water (120 μl) for separation into two layers. The lower chloroform layer (10 μl) was spotted on a reversed-phase TLC plate (RP-18, 1154230001, Merck Japan, Ltd.), developed with acetonitrile:pure water:acetic acid (95:4.5:0.5), and the dried TLC plate was transcribed on Imaging Plate (Fuji Photo Film Co., Ltd.) for 5 hr or longer. The detection was performed using BAS-5000 (Fuji Photo Film Co., Ltd.), and the obtained spot image was numerically converted by Multi Gauge Ver2.3 (Fuji Photo Film Co., Ltd.) and a delta-5-desaturase inhibitory rate (%) of 10 μM test compound was determined.

[2] = target: T1, delta-5-desaturase; assay: Inhibitory activity on binding of [3H]-labelled Reference Example 1 ligand to delta-5-desaturase (rat liver microsome fraction); conditions: test compound 10 μM; for inhibition at 10 µM: 3 nM tritiated ligand of Reference Example 1, read-out: Binding inhibitory activity against compound bind to delta-5-desaturase Binding inhibition rate (%) at 10 μM
Description: Inhibitory Activity on Binding of N-[2-({4-oxo-3-[4-(2,2,2-trifluoroethoxy)[2,6-^3H2]phenyl]-3,4-dihydrothieno[3,4-d]pyrimidin-2-yl}sulfanyl)ethyl]acetamide (Reference Example 1) to delta-5-desaturase)
All tests were performed at room temperature at 200 μL/well. A rat liver microsome fraction (30 μg/well) was preincubated with a test compound at a final concentration of 10 μM for 15 min in an assay buffer (10 mM Tris-HCl (pH 7.5), 100 mM KCl, 10 mM NaF, 3 mM MgCl2, 0.005% Tween20 and 1 mM GSH). N-[2-({4-oxo-3-[4-(2,2,2-trifluoroethoxy) [2,6-^3H2]phenyl]-3,4-dihydrothieno[3,4-d]pyrimidin-2-yl}sulfanyl)ethyl]acetamide was added to a final concentration of 3 nM and the mixture was incubated for 150 min. For Bound/Free separation, the membrane fraction was added on a GF/C glass filter using a cell harvester. The GF/C glass filter was washed 5 times with 300 μl of ice-cooled assay buffer (without 0.005% Tween) to separate the ligand bound to delta-5-desaturase. 50 μl of MicroScinti 0 was added, and the radioactivity on the filter was measured by TopCount. To evaluate non-specific binding, 10 μM N-[2-({4-oxo-3-[4-(2,2,2-trifluoroethoxy)phenyl]-3,4-dihydrothieno[3,4-d]pyrimidin-2-yl}sulfanyl)ethyl]acetamide was used. The inhibitory rate (%) of the test compound (10 μM) on the binding of N-[2-({4-oxo-3-[4-(2,2,2-trifluoroethoxy) [2,6-^3H2]phenyl]-3,4-dihydrothieno[3,4-d]pyrimidin-2-yl}sulfanyl)ethyl]acetamide to delta-5-desaturase was determined.

[3] = target: T2, delta-5-desaturase (Homo sapiens, UniProt O60427); assay: Delta-5-desaturase inhibitory activity using HepG2 cell; format: cell-based; conditions: test compound 1 μM
T2 construct: endogenous in cells; host or cells: HepG2
T2 sequence (O60427 whole entry): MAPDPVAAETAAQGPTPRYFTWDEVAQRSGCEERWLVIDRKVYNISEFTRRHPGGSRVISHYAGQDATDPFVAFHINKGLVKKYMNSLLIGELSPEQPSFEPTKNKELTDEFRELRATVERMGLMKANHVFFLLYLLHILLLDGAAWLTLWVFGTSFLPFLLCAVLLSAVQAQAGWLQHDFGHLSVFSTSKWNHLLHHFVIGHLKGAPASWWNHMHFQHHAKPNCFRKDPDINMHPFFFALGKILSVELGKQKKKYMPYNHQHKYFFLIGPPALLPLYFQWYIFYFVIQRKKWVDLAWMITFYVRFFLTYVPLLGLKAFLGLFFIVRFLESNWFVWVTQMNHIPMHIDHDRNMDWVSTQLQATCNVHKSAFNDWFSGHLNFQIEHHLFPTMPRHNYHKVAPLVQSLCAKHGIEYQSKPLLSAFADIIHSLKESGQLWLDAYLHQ
Description: Delta-5-Desaturase Inhibitory Activity Using HepG2 Cell
HepG2 was plated on a 96-well plate at 1×10^5 cells/well, and cultured overnight in DMEM (Dulbecco's modified Eagle medium) containing 10% FBS (fetal bovine serum). After washing (200 μL×2) with PBS (phosphate buffered saline), 40 μL of a reaction medium (DMEM, penicillin/streptomycin, 0.3% BSA) containing the test compound was added, and the mixture was preincubated in a CO2 incubator at 37° C. for 30 min. The reaction was started by adding a reaction medium (20 μL) containing 0.1 μCi [^14C]Eicosatrienoic acid, and the mixture was incubated in a CO2 incubator at 37° C. Incubation was performed for 3 hr, the cells were washed twice with 200 μL of PBS, detached with 50 μL of trypsin-EDTA and placed on a 96-deep well block. Furthermore, 20 μL of 2.5N NaOH was added, the plate was sealed and incubated overnight at 55° C. to allow saponification. The fatty acid extraction included acidifying with 10 μL of formic acid, adding chloroform:methanol (1:4), stirring, and further adding 200 μL of pure water to separate into two layers. The operation after development with TLC followed the method of detection system using TLC in a system using a rat liver microsome. A delta-5-desaturase inhibitory rate (%) of 1 μM test compound was determined.

T1 sequence (Q920R3 whole entry): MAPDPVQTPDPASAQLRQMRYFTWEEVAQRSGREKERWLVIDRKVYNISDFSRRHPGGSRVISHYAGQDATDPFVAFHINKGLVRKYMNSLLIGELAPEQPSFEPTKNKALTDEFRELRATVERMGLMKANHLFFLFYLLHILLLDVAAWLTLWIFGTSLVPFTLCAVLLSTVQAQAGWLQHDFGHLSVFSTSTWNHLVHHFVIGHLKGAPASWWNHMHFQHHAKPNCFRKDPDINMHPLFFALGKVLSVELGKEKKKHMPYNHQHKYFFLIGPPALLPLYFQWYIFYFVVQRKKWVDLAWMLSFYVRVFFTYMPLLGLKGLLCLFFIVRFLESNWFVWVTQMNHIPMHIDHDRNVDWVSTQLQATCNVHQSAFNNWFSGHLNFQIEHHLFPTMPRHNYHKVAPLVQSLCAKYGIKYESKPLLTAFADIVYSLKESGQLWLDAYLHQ

| Compound | inhibition at 10 µM [1] [%] | inhibition at 10 µM [2] [%] | inhibition at 1 µM [3] [%] | delta-5-desaturase inhibitory activity (at liver microsome) Inhibitory activity (%) at 10 μM ([1]; sodium salt, 10 µM) [%] | Binding inhibitory activity against compound bind to delta-5-desaturase Binding inhibition rate (%) at 10 μM ([2]; 3 nM tritiated ligand of Reference Example 1, sodium salt) [%] |
| --- | --- | --- | --- | --- | --- |
| O=c1ccc2c(=O)n(-c3ccc(OCC(F)(F)F)cc3)c(OCC(F)(F)F)nc2[nH]1 [Example 11, 2-(2,2,2-trifluoroethoxy)-3-[4-(2,2,2-trifluoroethoxy)phenyl]pyrido[2,3-d]pyrimidine-4,7(3H,8H)-dione] | 100 | 95 | 98 |  |  |
| COCC(F)(F)COc1nc2[nH]c(=O)ccc2c(=O)n1-c1ccc(OCC(F)(F)F)cc1 [Example 14, 2-(2,2-difluoro-3-methoxypropoxy)-3-[4-(2,2,2-trifluoroethoxy)phenyl]pyrido[2,3-d]pyrimidine-4,7(3H,8H)-dione] | 103 |  | 103 |  |  |
| CSc1nc2c(c(=O)n1-c1ccc(OCC(F)(F)F)cc1)CCC(=O)N2 [Example 21, 2-(methylsulfanyl)-3-[4-(2,2,2-trifluoroethoxy)phenyl]-5,6-dihydropyrido[2,3-d]pyrimidine-4,7(3H,8H)-dione] | 97 | 93 |  |  |  |
| CCSc1nc2c(=O)[nH]ccc2c(=O)n1-c1ccc(OCC(F)(F)F)cc1 [Example 29, 2-(ethylsulfanyl)-3-[4-(2,2,2-trifluoroethoxy)phenyl]-3,7-dihydropyrido[3,4-d]pyrimidine-4,8-dione] | 99 | 97 | 96 |  |  |
| O=c1[nH]ccc2c(=O)n(-c3ccc(OCC(F)(F)F)cc3)c(OCC(F)(F)F)nc12 [Example 31, 2-(2,2,2-trifluoroethoxy)-3-[4-(2,2,2-trifluoroethoxy)phenyl]-3,7-dihydropyrido[3,4-d]pyrimidine-4,8-dione] | 96 | 98 | 96 |  |  |
| CCSc1nc2c(OC)nccc2c(=O)n1-c1ccc(OCC(F)(F)F)cc1 [Example 33, 2-(ethylsulfanyl)-8-methoxy-3-[4-(2,2,2-trifluoroethoxy)phenyl]pyrido[3,4-d]pyrimidin-4(3H)-one] | 101 | 96 | 93 |  |  |
| CS(=O)(=O)CCCOc1nc2[nH]c(=O)ccc2c(=O)n1-c1ccc(OCC(F)(F)F)cc1 [Example 13, 2-[3-(methylsulfonyl)propoxy]-3-[4-(2,2,2-trifluoroethoxy)phenyl]pyrido[2,3-d]pyrimidine-4,7(3H,8H)-dione] | 97 | 89 | 88 |  |  |
| COc1ccc2c(=O)n(-c3ccc(OCC(F)(F)F)cc3)c(SC)nc2n1 [Example 2, 7-methoxy-2-(methylsulfanyl)-3-[4-(2,2,2-trifluoroethoxy)phenyl]pyrido[2,3-d]pyrimidin-4(3H)-one] | 102 | 94 | 107 |  |  |
| CCNc1nc2[nH]c(=O)ccc2c(=O)n1-c1ccc(OCC(F)(F)F)cc1 [Example 19, 2-(ethylamino)-3-[4-(2,2,2-trifluoroethoxy)phenyl]pyrido[2,3-d]pyrimidine-4,7(3H,8H)-dione] | 90 | 85 |  |  |  |
| CCSc1nc2[nH]c(=O)ccc2c(=O)n1-c1ccc(OCC(F)(F)F)cc1 [Example 7, 2-(ethylsulfanyl)-3-[4-(2,2,2-trifluoroethoxy)phenyl]pyrido[2,3-d]pyrimidine-4,7(3H,8H)-dione sodium salt] |  |  |  | 98 | 96 |
| CCCSc1nc2nc(OC)ccc2c(=O)n1-c1ccc(OCC(F)(F)F)cc1 [Example 3, 7-methoxy-2-(propylsulfanyl)-3-[4-(2,2,2-trifluoroethoxy)phenyl]pyrido[2,3-d]pyrimidin-4(3H)-one] | 102 | 97 |  |  |  |
| CCCc1nc2c(c(=O)n1-c1ccc(OCC(F)(F)F)cc1)CCC(=O)N2 [Example 40, 2-propyl-3-[4-(2,2,2-trifluoroethoxy)phenyl]-5,6-dihydropyrido[2,3-d]pyrimidine-4,7(3H,8H)-dione] |  | 89 | 92 |  |  |

Source: patent publication US9023858B2, “Substituted pyrido[2,3-d]pyrimidines as delta-5-desaturase inhibitors” (Takeda Pharmaceutical Company Limited, priority 2010, dated 2015)
